PubChem BioAssay (NCI)
Values joined by “and” are separate entries in the source; they are usually repeats but may differ in a detail not shown here. Equal entries are not always repeated.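 Following 48 hours of exposure in 96-well plates, responses at five concentrations were used to interpolate endpoints linearly. GI50 is the concentration that inhibits growth by half. TGI is the concentration that stops growth completely.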

What was measured:
Experiment in all cases: inhibition of tumour cell growth, NCI panel, 48 h
ACHN renal = tested on: ACHN renal
DU-145 prostate = tested on: DU-145 prostate
HT29 colon = tested on: HT29 colon
MDA-MB-231 breast = tested on: MDA-MB-231 breast
NCI-H460 lung = tested on: NCI-H460 lung
NCI/ADR-RES ovarian = tested on: NCI/ADR-RES ovarian
RPMI-8226 leukemia = tested on: RPMI-8226 leukemia
RXF 393 renal = tested on: RXF 393 renal
SF-268 CNS = tested on: SF-268 CNS
SK-MEL-28 melanoma = tested on: SK-MEL-28 melanoma

Compound | GI50 (ACHN renal) [µM] | TGI (ACHN renal) | TGI (DU-145 prostate) [µM] | TGI (HT29 colon) [µM] | TGI (MDA-MB-231 breast) [µM] | GI50 (NCI-H460 lung) [µM] | TGI (NCI-H460 lung) [µM] | TGI (NCI/ADR-RES ovarian) [µM] | GI50 (RPMI-8226 leukemia) [µM] | TGI (RPMI-8226 leukemia) | GI50 (RXF 393 renal) [µM] | TGI (RXF 393 renal) | GI50 (SF-268 CNS) [µM] | TGI (SF-268 CNS) | GI50 (SK-MEL-28 melanoma) [µM] | TGI (SK-MEL-28 melanoma) | GI50 (DU-145 prostate) [µM] | GI50 (HT29 colon) [µM] | GI50 (MDA-MB-231 breast) [µM] | GI50 (NCI/ADR-RES ovarian) [µM]
CC1CCC(NC(=O)N(CCCl)N=O)CC1 (stereo not given) | 31.6 | 91.7 µM and 103 µM | 227 | 109 | 91.2 | 28 | 100 | 129 | 12.5 | 37 µM and 103 µM | 16.7 | 33.5 µM and 72.9 µM | 14.9 | 39.8 µM and 89.5 µM | 18.8 | 35.1 µM and 93.1 µM | – | – | – | –
CC(C)(C)OC(=O)N1CCN(CCn2cc(C(F)(F)F)c3c(Cl)ncnc32)CC1 | 16.9 | 39.3 µM | 9.2 | 11.1 | 27.5 | 2.18 | 4.29 | 67.7 | 3.77 | 12.3 µM | 3.43 | 14.4 µM | 1.82 | 3.61 µM | 1.74 | 3.25 µM | 2.96 | 3.27 | 11.1 | 23
C[C@H]1[C@H](C)CC[C@]2(CO)CC[C@]3(C)C(=CC[C@@H]4[C@@]5(C)CCCNC(C)(C)[C@@H]5CC[C@]43C)[C@H]12 | 1.69 | 3.06 µM | 3.14 | 1.97 | 3.48 | 1.78 | 3.35 | 3.47 | 1.85 | 4.14 µM | 1.81 | 3.51 µM | 1.79 | 3.5 µM | 1.75 | 3.3 µM | 1.72 | 0.628 | 1.88 | 1.76
O=C1Nc2ccccc2/C1=C/C(=O)c1coc2c1C(=O)c1ccccc1C2=O | > 100 | > 100 µM | > 100 | > 100 | > 100 | > 100 | > 100 | > 100 | > 100 | > 100 µM | > 100 | > 100 µM | > 100 | > 100 µM | > 100 | > 100 µM | > 100 | > 100 | > 100 | > 100
N#CC(NC12CC3CC(CC(C3)C1)C2)c1ccc2c(c1)OCO2 (stereo not given) | – | > 100 µM | > 100 | > 100 | > 100 | – | > 100 | > 100 | – | > 100 µM | – | > 100 µM | – | > 100 µM | – | > 100 µM | – | – | – | –
c1ccc2[nH]c(-c3ccc(-c4nccc5c4[nH]c4ccccc45)cc3)nc2c1 | 2.05 | 4.17 µM | 16.2 | 4.43 | 5.83 | 3.03 | 9.79 | 15.2 | 2.48 | 5.61 µM | 1.93 | 3.53 µM | 2.89 | 10.2 µM | 1.96 | 3.75 µM | 4.02 | 2.19 | 2.39 | 3.5
C=C(C)C(=O)O[C@H]1CC(=C)[C@@H]2C[C@H](O)[C@](O)(CCl)[C@@H]2[C@H]2OC(=O)C(=C)[C@@H]21 | 1.82 | 3.31 µM | 6.33 | 7.42 | 13.6 | 10.2 | 28.2 | 13.2 | 1.43 | 4.78 µM | 1.95 | 3.98 µM | 3.76 | 17.4 µM | 2.02 | 3.9 µM | 2.16 | 2.89 | 4.28 | 3.33
Cc1nn2c(/C=C3\C(=O)Nc4ccc(Cl)cc43)c(C)nc2s1 | 72.9 | > 100 µM | > 100 | > 100 | > 100 | 16.3 | > 100 | > 100 | 33.2 | > 100 µM | > 100 | > 100 µM | 43.2 | > 100 µM | 27.5 | > 100 µM | 86.5 | 5.16 | > 100 | 15.8
Nc1c(C(=O)c2cccc(-c3ccncc3)c2)cnn1-c1ccc(F)cc1F | 12 | > 25 µM | > 25 | > 25 | > 25 | 5.2 | > 25 | > 25 | 6.16 | > 25 µM | 8.75 | > 25 µM | > 19.7 | > 25 µM | 16.7 | > 25 µM | > 22.1 | 2.48 | 15.2 | 3.83
O=C1c2ccccc2C(O)(O)C1(O)C1(O)C(=O)c2ccccc2C1(O)O (stereo not given) | – | 47.9 µM | > 100 | > 100 | > 100 | – | 37.3 | > 100 | – | > 100 µM | – | 81.8 µM | – | > 100 µM | – | > 100 µM | – | – | – | –
COc1cc(OC(=O)c2ccccc2)cc2c1C(=O)C=CC2=O | – | 26.4 µM | 34.4 | 39.8 | 5.48 | – | 60.9 | > 88.6 | – | 29.7 µM | – | 24.6 µM | – | 36.3 µM | – | 34.5 µM | – | – | – | –
CCN(CC)CCCCNc1c2ccccc2[n+](C)c2c1[nH]c1ccccc12 | 2.27 | > 47.3 µM | 11.5 | 1.09 | > 20.3 | 0.0837 | 2.27 | > 100 | 0.255 | 1.32 µM | 0.402 | 2.16 µM | 0.209 | 1.4 µM | 0.201 | 0.539 µM | 0.182 | 0.229 | – | 48.8
COc1cc(CSc2nc3ccc(C)cc3c(=O)n2-c2ccccc2)cc(OC)c1OC | 4.78 | > 100 µM | > 100 | > 100 | > 100 | 2.3 | > 100 | > 100 | 3.28 | > 100 µM | 1.1 | > 25.5 µM | 6.37 | > 100 µM | 2.8 | > 100 µM | 3.59 | 0.759 | 2.92 | 1.26
